In publication PMC10673369, “Preliminary SAR of Novel Pleuromutilin–Polyamine Conjugates” (Microorganisms, 2023):

Tests used:
S. aureus ATCC 25923 [1] = assay: Real-time growth inhibition curves, S. aureus; format: cell-based; conditions: optical density during 18 h culturing
Experimental: Real-time growth curves were determined using reported protocols (see Supplementary File).
Further investigation is required to determine the factors leading to the differences observed in the sub-MIC growth curves for the two compounds.
(§1) Briefly, restoring enhancer concentrations were determined with an inoculum of 5x10^5 CFU in 200 µL of MHB containing two-fold serial dilutions of each derivative in the presence of doxycycline at 4.5 […]
(§2) The lowest concentration of the polyamine
(§3) These measurements were independently repeated in triplicate.
(§4) Outer membrane permeabilization was measured using nitrocefin as a chromogenic substrate of periplasmic β-lactamase. […] Nitrocefin hydrolysis was monitored spectrophotometrically by measuring the increase in absorbance at 490 nm. […]
(§5) HEK293 cells were counted manually in a Neubauer hemocytometer and plated at a density of 5,000 cells/well into each well of the 384-well plates containing the 25x (2 µL) concentrated compounds [26,27]. […]
(§6) To measure cytotoxicity, 5 µL (equals 100 µM final) of resazurin was added to each well after incubation and incubated for further 3 h at 37 °C with 5% CO2. After the final incubation, fluorescence intensity […]
reader. […] The concentration-dependent percentage cytotoxicity was fitted to a dose–response function (using Pipeline Pilot) and CC50 values were determined. […]

P. aeruginosa PAO1 [2] = assay: Nitrocefin hydrolysis assay (outer membrane permeabilization); format: cell-based; conditions: polymyxin B at 98.3 μM ([…])
Experimental: Nitrocefin assays were conducted using reported protocols (see Supplementary File).
We also examined the ability of 9e to act as membrane disruptor of the Gram-negative bacteria P. aeruginosa PAO1 (Figure 5), using a nitrocefin colorimetric assay. This assay makes use of a chromogenic cephalosporin derivative, which in the presence of an outer membrane disruptor gains entry to the periplasm, where upon the action of β-lactamases leads to substrate hydrolysis with a detectable color change from yellow to red.
as §1, §2, §3, §4, §5, §6
reader. […] The concentration-dependent percentage cytotoxicity was fitted to a dose–response function (using Pipeline Pilot) and CC50 values were determined.
Human whole blood was washed three times with three volumes of 0.9% NaCl and then resuspended in the same solution to a concentration of 0.5 x 10^8 cells/mL, as determined by the manual cell count in a Neubauer hemocytometer. […] Hemolysis was determined by measuring the supernatant absorbance at […] (OD405). The absorbance was measured using a Tecan M1000 Pro monochromator plate reader. […]

P. aeruginosa PAO1 [3] = assay: Real-time growth inhibition curves, P. aeruginosa; format: cell-based; conditions: optical density during 18 h culturing
MRSA = assay: ATP efflux assay, MRSA; format: cell-based, methicillin-resistant S. aureus; conditions: compound at 100 µg/mL
Experimental: (§7) ATP efflux assays were conducted using reported protocols (see Supplementary File).
(§8) The mechanism of antibiotic action of 9e towards the Gram-positive bacterium Staphylococcus aureus was attributed to its ability to disrupt the bacterial membrane and cause the release of intracellular ATP. The test organisms, being S. aureus ATCC 25923 and MRSA, were briefly exposed to 9e at a single dose of 100 µg/mL, with the leakage of ATP determined by the use of a bioluminescence assay (Figure 4). […] Nevertheless, a 40% level of ATP release is detrimental to the survival of the bacteria. After 3 min, it will be clear that the bacteria will be killed.
(§9) 2.9 ATP efflux measurement
(§10) A solution of the compound was prepared in twice-distilled water at a fixed concentration of 100 µg/mL. The different Gram-positive suspensions were prepared in MH II broth and were incubated at 37 °C. […] Subsequently, 50 µL of Luceferin–Luceferase reagent (Yelen, France) was added to the mixture, and the luminescent signal was quantified with an Infinite M200 microplate reader (Tecan, Männedorf, Switzerland) for five seconds. ATP concentration was quantified by internal sample addition. Squalamine (100 µg/mL) was used as a positive control to quantify the maximum level of ATP efflux and water as the negative control. […]

S. aureus ATCC 25923 [4] = assay: ATP efflux assay, S. aureus; format: cell-based, Staphylococcus aureus; conditions: compound at 100 µg/mL
Experimental: as §7, §8, §9, §10

Row | SMILES | Real-time bacterial growth inhibition (S. aureus ATCC 25923 [1]) | Outer membrane perturbation (nitrocefin hydrolysis) (P. aeruginosa PAO1 [2]) | Real-time bacterial growth inhibition (P. aeruginosa PAO1 [3]) | ATP release relative to positive control squalamine (MRSA) [%] | ATP release relative to positive control squalamine (S. aureus ATCC 25923 [4]) [%]
1 | C=C[C@]1(C)C[C@@H](OC(=O)CSCCN(CC)CC)[C@]2(C)[C@H](C)CC[C@]3(CCC(=O)[C@H]32)[C@@H](C)[C@@H]1O [Compound 2, Tiamulin, reference compound] | inhibited the growth | failing to exhibit any detectable membrane perturbation | No such inhibition |  | 
2 | C=C[C@]1(C)C[C@@H](OC(=O)CNCCCNCCCCCCCCCCNCCCNCC(=O)O[C@@H]2C[C@@](C)(C=C)[C@@H](O)[C@H](C)[C@]34CCC(=O)[C@H]3[C@@]2(C)[C@H](C)CC4)[C@]2(C)[C@H](C)CC[C@]3(CCC(=O)[C@H]32)[C@@H](C)[C@@H]1O.O=C(O)C(F)(F)F.O=C(O)C(F)(F)F.O=C(O)C(F)(F)F.O=C(O)C(F)(F)F [Compound 9e, N^1,N^1′-(Decane-1,10-diyl)bis(N^3-(2-(((3aR,4R,5R,7S,8S,9R,9aS,12R)-8-hydroxy-4,7,9,12-tetramethyl-3-oxo-7-vinyldecahydro-4,9a-propanocyclopenta [8]annulen-5-yl)oxy)-2-oxoethyl)propane-1,3-diaminium) 2,2,2-trifluoroacetate] | inhibited the growth | inactive | No such inhibition | 40 | 40
